ChEMBL document CHEMBL6096698, “Discovery of a Selective and Orally Bioavailable RET Degrader with Effectiveness in Various Mutations” (J Med Chem, 2025)

How the values were obtained:
BaF3 [1] = test: Antiproliferative activity against mouse BaF3 cells stably expressing KIF5B-RET V804M mutant incubated for 72 hrs by CCK8 assay; format: functional, cell-based; settings: BaF3, 72 h
BaF3 [2] = test: PROTAC activity at CRBN/KIF5B-RET (unknown origin) expressed in mouse BaF3 cells assessed as induction of RET degradation at 10 nM incubated for 24 hrs by immunoblot analysis relative to control; format: cell-based
BaF3 [3] = test: Antiproliferative activity against mouse BaF3 cells stably expressing KIF5B-RET incubated for 72 hrs by CCK8 assay; format: functional, cell-based; settings: BaF3, 72 h
BaF3 [4] = test: Antiproliferative activity against mouse BaF3 cells stably expressing KIF5B-RET G810S mutant incubated for 72 hrs by CCK8 assay; format: functional, cell-based; settings: BaF3, 72 h
BaF3 [5] = test: Antiproliferative activity against mouse BaF3 cells stably expressing KIF5B-RET G810C mutant incubated for 72 hrs by CCK8 assay; format: functional, cell-based; settings: BaF3, 72 h
BaF3 [6] = test: Antiproliferative activity against mouse BaF3 cells stably expressing KIF5B-RET G810R mutant incubated for 72 hrs by CCK8 assay; format: functional, cell-based; settings: BaF3, 72 h
BaF3 [7] = test: PROTAC activity at VHL/KIF5B-RET (unknown origin) expressed in mouse BaF3 cells assessed as induction of RET degradation at 10 nM incubated for 24 hrs by immunoblot analysis relative to control; format: cell-based

SMILES | IC50 (BaF3 [1]) | Activity (BaF3 [2]) | IC50 (BaF3 [3]) | IC50 (BaF3 [4]) | IC50 (BaF3 [5]) | IC50 (BaF3 [6]) | Activity (BaF3 [7])
COc1ccc(CN2C3CC2CN(c2ccc(-c4cc(N5CCN(C(=O)CCCNc6ccc7c(c6)C(=O)N(C6CCC(=O)NC6=O)C7=O)CC5)cn5ncc(C#N)c45)cn2)C3)cn1 (stereo unspecified) | 209 nM | 41% | 13.3 nM | 202 nM | 1410 nM | 1640 nM | –
COc1ccc(CN2C3CC2CN(c2ccc(-c4cc(N5CCN(CCCCCCC(=O)N[C@H](C(=O)N6C[C@H](O)C[C@H]6C(=O)N[C@@H](C)c6ccc(-c7scnc7C)cc6)C(C)(C)C)CC5)cn5ncc(C#N)c45)cn2)C3)cn1 | 983 nM | – | 40.2 nM | > 5000 nM | > 5000 nM | > 5000 nM | 23%
COc1ccc(CN2C3CC2CN(c2ccc(-c4cc(N5CCN(C(=O)CNc6ccc7c(c6)C(=O)N(C6CCC(=O)NC6=O)C7=O)CC5)cn5ncc(C#N)c45)cn2)C3)cn1 (stereo unspecified) | 178 nM | 40% | 16.5 nM | 176 nM | 1320 nM | 1210 nM | –
COc1ccc(CN2C3CC2CN(c2ccc(-c4cc(N5CCC(N6CCN(CCCC#Cc7cccc8c7C(=O)N(C7CCC(=O)NC7=O)C8=O)CC6)CC5)cn5ncc(C#N)c45)cn2)C3)cn1 (stereo unspecified) | 9.3 nM | 62% | 4.3 nM | 63.7 nM | 54.3 nM | 206 nM | –
COc1ccc(CN2C3CC2CN(c2ccc(-c4cc(N5CCC(N6CCN(C(=O)CCCCCCCNc7ccc8c(c7)C(=O)N(C7CCC(=O)NC7=O)C8=O)CC6)CC5)cn5ncc(C#N)c45)cn2)C3)cn1 (stereo unspecified) | 14.2 nM | 58% | 3.4 nM | 86.1 nM | 190 nM | 614 nM | –
COc1ccc(CN2C3CC2CN(c2ccc(-c4cc(N5CCN(C(=O)CCCCCNc6ccc7c(c6)C(=O)N(C6CCC(=O)NC6=O)C7=O)CC5)cn5ncc(C#N)c45)cn2)C3)cn1 (stereo unspecified) | 17.4 nM | 49% | 6.8 nM | 125 nM | 232 nM | 811 nM | –
COc1ccc(CN2C3CC2CN(c2ccc(-c4cc(N5CCC(N6CCN(C(=O)CNc7cccc8c7C(=O)N(C7CCC(=O)NC7=O)C8=O)CC6)CC5)cn5ncc(C#N)c45)cn2)C3)cn1 (stereo unspecified) | 15.3 nM | 36% | 14.4 nM | 89.8 nM | 198 nM | 626 nM | –
COc1ccc(CN2C3CC2CN(c2ccc(-c4cc(N5CCC(N6CCN(C(=O)CNc7ccc8c(c7)C(=O)N(C7CCC(=O)NC7=O)C8=O)CC6)CC5)cn5ncc(C#N)c45)cn2)C3)cn1 (stereo unspecified) | 16.6 nM | 52% | 5.3 nM | 81.9 nM | 206 nM | 572 nM | –
COc1ccc(CN2C3CC2CN(c2ccc(-c4cc(N5CCN(CCCCC(=O)N[C@H](C(=O)N6C[C@H](O)C[C@H]6C(=O)N[C@@H](C)c6ccc(-c7scnc7C)cc6)C(C)(C)C)CC5)cn5ncc(C#N)c45)cn2)C3)cn1 | 279 nM | – | 229 nM | > 5000 nM | 852 nM | > 5000 nM | 15%
COc1ccc(CN2C3CC2CN(c2ccc(-c4cc(N5CCN(C(=O)CNc6cccc7c6C(=O)N(C6CCC(=O)NC6=O)C7=O)CC5)cn5ncc(C#N)c45)cn2)C3)cn1 (stereo unspecified) | 190 nM | 33% | 19 nM | 384 nM | 1380 nM | 1770 nM | –
COc1ccc(CN2C3CC2CN(c2ccc(-c4cc(N5CCC(N6CCN(C(=O)CCCNc7ccc8c(c7)C(=O)N(C7CCC(=O)NC7=O)C8=O)CC6)CC5)cn5ncc(C#N)c45)cn2)C3)cn1 (stereo unspecified) | 152 nM | 39% | 14.9 nM | 127 nM | 831 nM | 812 nM | –
COc1ccc(CN2C3CC2CN(c2ccc(-c4cc(N5CCN(CC6CCN(c7ccc8c(c7)C(=O)N(C7CCC(=O)NC7=O)C8=O)CC6)CC5)cn5ncc(C#N)c45)cn2)C3)cn1 (stereo unspecified) | 21.4 nM | 41% | 10.3 nM | 126 nM | 192 nM | 1890 nM | –
COc1ccc(CN2C3CC2CN(c2ccc(-c4cc(N5CCN(C6CCN(c7ccc8c(c7)C(=O)N(C7CCC(=O)NC7=O)C8=O)CC6)CC5)cn5ncc(C#N)c45)cn2)C3)cn1 (stereo unspecified) | 38.4 nM | 36% | 15.7 nM | > 5000 nM | 372 nM | 750 nM | –
COc1ccc(CN2C3CC2CN(c2ccc(-c4cc(N5CCN(C(=O)CCCCC(=O)N[C@H](C(=O)N6C[C@H](O)C[C@H]6C(=O)N[C@@H](C)c6ccc(-c7scnc7C)cc6)C(C)(C)C)CC5)cn5ncc(C#N)c45)cn2)C3)cn1 | > 5000 nM | – | 309 nM | > 5000 nM | > 5000 nM | > 5000 nM | 10%
COc1ccc(CN2C3CC2CN(c2ccc(-c4cc(N5CCC(N6CCN(CCCC#Cc7ccc8c(c7)C(=O)N(C7CCC(=O)NC7=O)C8=O)CC6)CC5)cn5ncc(C#N)c45)cn2)C3)cn1 (stereo unspecified) | 12.4 nM | 60% | 5.1 nM | 84.1 nM | 89.2 nM | 321 nM | –
COc1ccc(CN2C3CC2CN(c2ccc(-c4cc(N5CCN(C(=O)CCCNc6cccc7c6C(=O)N(C6CCC(=O)NC6=O)C7=O)CC5)cn5ncc(C#N)c45)cn2)C3)cn1 (stereo unspecified) | 142 nM | 44% | 12.2 nM | 272 nM | 1020 nM | 1140 nM | –
COc1ccc(CN2C3CC2CN(c2ccc(-c4cc(N5CCC(N6CCN(CCCCCC#Cc7cccc8c7CN(C7CCC(=O)NC7=O)C8=O)CC6)CC5)cn5ncc(C#N)c45)cn2)C3)cn1 (stereo unspecified) | 27.6 nM | 40% | 12.5 nM | 105 nM | 61.8 nM | 737 nM | –
COc1ccc(CN2C3CC2CN(c2ccc(-c4cc(N5CCC(N6CCN(C(=O)CCCCCCCNc7cccc8c7C(=O)N(C7CCC(=O)NC7=O)C8=O)CC6)CC5)cn5ncc(C#N)c45)cn2)C3)cn1 (stereo unspecified) | 17.8 nM | 50% | 5.9 nM | 93.5 nM | 212 nM | 672 nM | –
COc1ccc(CN2C3CC2CN(c2ccc(-c4cc(N5CCN(C(=O)CCCCCCCCCCC(=O)N[C@H](C(=O)N6C[C@H](O)C[C@H]6C(=O)N[C@@H](C)c6ccc(-c7scnc7C)cc6)C(C)(C)C)CC5)cn5ncc(C#N)c45)cn2)C3)cn1 | 85.3 nM | – | 35.4 nM | 552 nM | 818 nM | 1330 nM | 24%
COc1ccc(CN2C3CC2CN(c2ccc(-c4cc(N5CCN(C(=O)CCCCCNc6cccc7c6C(=O)N(C6CCC(=O)NC6=O)C7=O)CC5)cn5ncc(C#N)c45)cn2)C3)cn1 (stereo unspecified) | 17.2 nM | 52% | 6.1 nM | 105 nM | 216 nM | 794 nM | –
COc1ccc(CN2C3CC2CN(c2ccc(-c4cc(N5CCN(C(=O)CCCCCCCNc6ccc7c(c6)C(=O)N(C6CCC(=O)NC6=O)C7=O)CC5)cn5ncc(C#N)c45)cn2)C3)cn1 (stereo unspecified) | 14.1 nM | 52% | 5.7 nM | 102 nM | 228 nM | 714 nM | –
